# Legend:
# [1] = target: Vascular endothelial growth factor receptor 1 (Homo sapiens, UniProt P17948); experiment: Inhibition of recombinant human N-terminal GST-tagged factor 10a cleavage site-fused Flt1 (K784 to I1338 residues) expressed in baculovirus infected insect Sf9 cells using poly-EY as substrate after 120 mins in presence of gamma33P-ATP by liquid scintillation spectrometry
# Ephrin type-B receptor 4 = target: T1, Ephrin type-B receptor 4 (Homo sapiens, UniProt P54760); experiment: Inhibition of recombinant human N-terminal His6-tagged EphB4 kinase domain (E605 to E890 residues) expressed in baculovirus using poly-AEKY as substrate after 150 mins in presence of gamma33P-ATP by liquid scintillation spectrometry
# T1 sequence (P54760 whole entry): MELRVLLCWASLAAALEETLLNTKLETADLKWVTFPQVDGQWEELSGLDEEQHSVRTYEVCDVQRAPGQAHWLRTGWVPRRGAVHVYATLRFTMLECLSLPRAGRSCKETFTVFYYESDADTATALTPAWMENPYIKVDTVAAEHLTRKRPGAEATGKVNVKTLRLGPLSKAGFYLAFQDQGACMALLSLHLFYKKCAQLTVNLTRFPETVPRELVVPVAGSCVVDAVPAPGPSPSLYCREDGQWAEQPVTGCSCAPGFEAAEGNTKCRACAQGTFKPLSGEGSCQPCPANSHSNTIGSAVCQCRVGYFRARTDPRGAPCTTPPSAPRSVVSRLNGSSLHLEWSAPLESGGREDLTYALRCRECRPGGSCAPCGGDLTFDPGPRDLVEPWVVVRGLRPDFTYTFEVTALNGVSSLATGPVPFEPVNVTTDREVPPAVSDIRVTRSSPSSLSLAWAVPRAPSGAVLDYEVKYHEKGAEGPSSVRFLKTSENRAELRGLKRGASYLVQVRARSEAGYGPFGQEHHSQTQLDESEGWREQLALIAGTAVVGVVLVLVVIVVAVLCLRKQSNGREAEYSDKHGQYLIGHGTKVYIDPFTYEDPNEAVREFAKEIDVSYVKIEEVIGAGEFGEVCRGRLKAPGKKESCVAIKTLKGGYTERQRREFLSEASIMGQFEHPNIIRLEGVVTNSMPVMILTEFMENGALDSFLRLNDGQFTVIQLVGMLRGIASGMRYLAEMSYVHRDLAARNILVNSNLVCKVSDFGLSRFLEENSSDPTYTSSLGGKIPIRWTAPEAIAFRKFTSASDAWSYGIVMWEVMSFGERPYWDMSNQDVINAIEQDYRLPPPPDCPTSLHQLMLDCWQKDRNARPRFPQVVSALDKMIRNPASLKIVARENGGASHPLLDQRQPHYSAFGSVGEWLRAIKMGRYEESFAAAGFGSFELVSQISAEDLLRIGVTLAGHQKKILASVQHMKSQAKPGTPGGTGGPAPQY
# [2] = target: Receptor tyrosine-protein kinase erbB-2 (Homo sapiens, UniProt P04626); experiment: Inhibition of recombinant human N-terminal GST His6-tagged thrombin cleavage site-fused ErbB2 kinase domain (Q679 to V1255 residues) expressed in baculovirus infected insect Sf9 cells using biotinylated poly-EY as substrate after 60 mins by alphascreen assay
# Chain of Receptor tyrosine-protein kinase erbB-2 (P04626 whole entry, the tested form may be a part): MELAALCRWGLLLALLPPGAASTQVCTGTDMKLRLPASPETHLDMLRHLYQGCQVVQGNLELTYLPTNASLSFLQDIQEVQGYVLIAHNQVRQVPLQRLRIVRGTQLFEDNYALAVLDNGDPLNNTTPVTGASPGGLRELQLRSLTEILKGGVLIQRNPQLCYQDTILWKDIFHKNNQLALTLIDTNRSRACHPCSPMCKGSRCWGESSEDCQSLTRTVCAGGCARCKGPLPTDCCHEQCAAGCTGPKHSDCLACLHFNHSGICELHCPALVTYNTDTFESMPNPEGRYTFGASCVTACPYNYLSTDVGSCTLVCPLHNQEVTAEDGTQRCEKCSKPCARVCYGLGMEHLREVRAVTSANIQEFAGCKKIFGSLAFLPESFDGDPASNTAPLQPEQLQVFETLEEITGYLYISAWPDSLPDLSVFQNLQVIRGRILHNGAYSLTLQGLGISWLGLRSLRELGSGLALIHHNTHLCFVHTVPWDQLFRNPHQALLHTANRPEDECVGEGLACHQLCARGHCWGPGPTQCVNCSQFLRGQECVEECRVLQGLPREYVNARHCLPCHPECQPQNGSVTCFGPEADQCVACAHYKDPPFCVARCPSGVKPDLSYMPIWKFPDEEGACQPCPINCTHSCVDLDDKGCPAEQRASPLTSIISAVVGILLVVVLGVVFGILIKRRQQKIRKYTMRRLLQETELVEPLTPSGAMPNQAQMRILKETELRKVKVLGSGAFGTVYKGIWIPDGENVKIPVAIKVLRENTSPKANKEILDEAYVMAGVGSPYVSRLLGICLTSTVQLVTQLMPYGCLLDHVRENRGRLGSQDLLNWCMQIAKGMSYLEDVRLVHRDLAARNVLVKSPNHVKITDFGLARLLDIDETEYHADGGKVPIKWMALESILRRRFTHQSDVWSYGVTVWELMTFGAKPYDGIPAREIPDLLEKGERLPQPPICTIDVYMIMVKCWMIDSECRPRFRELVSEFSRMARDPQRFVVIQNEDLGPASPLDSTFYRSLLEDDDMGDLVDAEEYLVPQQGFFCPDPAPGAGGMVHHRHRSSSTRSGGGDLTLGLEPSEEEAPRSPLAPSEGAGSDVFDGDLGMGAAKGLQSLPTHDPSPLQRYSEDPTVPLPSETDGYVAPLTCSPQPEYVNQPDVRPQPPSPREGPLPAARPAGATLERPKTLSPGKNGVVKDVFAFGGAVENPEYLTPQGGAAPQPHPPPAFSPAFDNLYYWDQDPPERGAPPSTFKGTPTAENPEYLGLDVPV
# [3] = target: Vascular endothelial growth factor receptor 2 (Homo sapiens, UniProt P35968); experiment: Inhibition of recombinant human N-terminal GST-fused KDR (D807 to V1356 residues) expressed in baculovirus infected […] insect Sf9 cells using poly-EY as substrate after 240 mins by luciferase coupled chemiluminescence assay
# Chain of Vascular endothelial growth factor receptor 2 (P35968 whole entry, the tested form may be a part): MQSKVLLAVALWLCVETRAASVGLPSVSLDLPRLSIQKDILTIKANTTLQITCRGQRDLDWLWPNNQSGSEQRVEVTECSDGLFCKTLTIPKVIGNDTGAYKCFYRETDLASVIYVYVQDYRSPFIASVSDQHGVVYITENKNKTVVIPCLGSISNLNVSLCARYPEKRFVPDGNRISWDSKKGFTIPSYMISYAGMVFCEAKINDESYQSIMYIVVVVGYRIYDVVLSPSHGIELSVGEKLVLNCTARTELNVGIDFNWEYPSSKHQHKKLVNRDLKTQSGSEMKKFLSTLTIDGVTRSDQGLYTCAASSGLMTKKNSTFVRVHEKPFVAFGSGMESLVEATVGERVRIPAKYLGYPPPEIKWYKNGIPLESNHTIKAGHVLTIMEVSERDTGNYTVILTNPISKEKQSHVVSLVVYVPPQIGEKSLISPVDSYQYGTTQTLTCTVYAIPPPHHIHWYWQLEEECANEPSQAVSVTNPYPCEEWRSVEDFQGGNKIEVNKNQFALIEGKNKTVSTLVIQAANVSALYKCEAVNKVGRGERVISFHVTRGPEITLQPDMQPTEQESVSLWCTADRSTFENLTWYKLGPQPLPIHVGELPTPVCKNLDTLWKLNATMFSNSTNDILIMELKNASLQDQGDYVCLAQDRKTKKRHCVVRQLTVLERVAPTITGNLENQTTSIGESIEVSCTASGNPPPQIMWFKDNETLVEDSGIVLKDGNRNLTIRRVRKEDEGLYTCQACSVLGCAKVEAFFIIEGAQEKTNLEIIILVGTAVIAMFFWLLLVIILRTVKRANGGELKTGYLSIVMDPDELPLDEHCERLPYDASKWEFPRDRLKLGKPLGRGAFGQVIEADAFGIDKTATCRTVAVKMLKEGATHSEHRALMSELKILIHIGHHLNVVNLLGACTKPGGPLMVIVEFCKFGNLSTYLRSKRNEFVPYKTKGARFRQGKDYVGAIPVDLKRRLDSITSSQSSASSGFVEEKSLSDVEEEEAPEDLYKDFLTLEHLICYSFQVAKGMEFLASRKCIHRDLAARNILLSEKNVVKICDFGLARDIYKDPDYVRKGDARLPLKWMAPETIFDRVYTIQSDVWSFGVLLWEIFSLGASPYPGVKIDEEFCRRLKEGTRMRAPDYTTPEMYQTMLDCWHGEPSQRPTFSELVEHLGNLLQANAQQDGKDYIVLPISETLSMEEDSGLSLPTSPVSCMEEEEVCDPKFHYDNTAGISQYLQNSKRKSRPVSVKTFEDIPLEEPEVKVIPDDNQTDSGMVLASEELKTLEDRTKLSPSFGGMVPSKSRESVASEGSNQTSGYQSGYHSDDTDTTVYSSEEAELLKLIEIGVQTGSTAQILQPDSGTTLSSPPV
# Ephrin type-A receptor 2 = Ephrin type-A receptor 2 (Homo sapiens, UniProt P29317); experiment: Inhibition of recombinant human N-terminal His6-tagged EphA2 (N598 to R890 residues) expressed in baculovirus using poly-EY as substrate after 180 mins by luciferase coupled chemiluminescence assay
# Chain of Ephrin type-A receptor 2 (P29317 whole entry, the tested form may be a part): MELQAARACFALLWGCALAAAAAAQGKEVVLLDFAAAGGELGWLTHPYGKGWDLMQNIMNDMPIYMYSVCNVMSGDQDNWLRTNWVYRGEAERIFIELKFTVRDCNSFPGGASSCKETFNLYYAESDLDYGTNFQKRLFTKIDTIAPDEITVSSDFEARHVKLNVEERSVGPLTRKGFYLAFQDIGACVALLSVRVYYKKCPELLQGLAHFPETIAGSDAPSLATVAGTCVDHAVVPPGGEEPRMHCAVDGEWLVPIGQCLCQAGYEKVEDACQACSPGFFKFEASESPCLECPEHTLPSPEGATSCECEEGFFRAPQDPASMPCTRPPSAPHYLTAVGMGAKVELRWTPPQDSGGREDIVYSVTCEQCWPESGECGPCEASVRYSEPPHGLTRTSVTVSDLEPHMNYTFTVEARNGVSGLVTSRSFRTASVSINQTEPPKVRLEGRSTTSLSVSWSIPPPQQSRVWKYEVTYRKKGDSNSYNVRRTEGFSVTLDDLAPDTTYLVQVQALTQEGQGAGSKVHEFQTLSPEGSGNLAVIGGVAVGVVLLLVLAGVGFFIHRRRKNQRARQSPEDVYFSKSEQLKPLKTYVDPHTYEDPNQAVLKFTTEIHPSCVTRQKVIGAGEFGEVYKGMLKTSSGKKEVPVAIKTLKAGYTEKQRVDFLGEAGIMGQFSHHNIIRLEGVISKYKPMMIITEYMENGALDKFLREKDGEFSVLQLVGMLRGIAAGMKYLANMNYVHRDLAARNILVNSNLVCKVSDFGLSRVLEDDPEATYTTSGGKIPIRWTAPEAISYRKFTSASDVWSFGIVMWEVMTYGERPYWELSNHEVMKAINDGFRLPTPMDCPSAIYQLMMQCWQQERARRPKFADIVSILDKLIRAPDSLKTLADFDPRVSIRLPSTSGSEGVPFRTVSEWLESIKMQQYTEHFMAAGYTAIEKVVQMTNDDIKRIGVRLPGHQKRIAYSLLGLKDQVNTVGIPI
# Chain of Vascular endothelial growth factor receptor 1 (P17948 whole entry, the tested form may be a part): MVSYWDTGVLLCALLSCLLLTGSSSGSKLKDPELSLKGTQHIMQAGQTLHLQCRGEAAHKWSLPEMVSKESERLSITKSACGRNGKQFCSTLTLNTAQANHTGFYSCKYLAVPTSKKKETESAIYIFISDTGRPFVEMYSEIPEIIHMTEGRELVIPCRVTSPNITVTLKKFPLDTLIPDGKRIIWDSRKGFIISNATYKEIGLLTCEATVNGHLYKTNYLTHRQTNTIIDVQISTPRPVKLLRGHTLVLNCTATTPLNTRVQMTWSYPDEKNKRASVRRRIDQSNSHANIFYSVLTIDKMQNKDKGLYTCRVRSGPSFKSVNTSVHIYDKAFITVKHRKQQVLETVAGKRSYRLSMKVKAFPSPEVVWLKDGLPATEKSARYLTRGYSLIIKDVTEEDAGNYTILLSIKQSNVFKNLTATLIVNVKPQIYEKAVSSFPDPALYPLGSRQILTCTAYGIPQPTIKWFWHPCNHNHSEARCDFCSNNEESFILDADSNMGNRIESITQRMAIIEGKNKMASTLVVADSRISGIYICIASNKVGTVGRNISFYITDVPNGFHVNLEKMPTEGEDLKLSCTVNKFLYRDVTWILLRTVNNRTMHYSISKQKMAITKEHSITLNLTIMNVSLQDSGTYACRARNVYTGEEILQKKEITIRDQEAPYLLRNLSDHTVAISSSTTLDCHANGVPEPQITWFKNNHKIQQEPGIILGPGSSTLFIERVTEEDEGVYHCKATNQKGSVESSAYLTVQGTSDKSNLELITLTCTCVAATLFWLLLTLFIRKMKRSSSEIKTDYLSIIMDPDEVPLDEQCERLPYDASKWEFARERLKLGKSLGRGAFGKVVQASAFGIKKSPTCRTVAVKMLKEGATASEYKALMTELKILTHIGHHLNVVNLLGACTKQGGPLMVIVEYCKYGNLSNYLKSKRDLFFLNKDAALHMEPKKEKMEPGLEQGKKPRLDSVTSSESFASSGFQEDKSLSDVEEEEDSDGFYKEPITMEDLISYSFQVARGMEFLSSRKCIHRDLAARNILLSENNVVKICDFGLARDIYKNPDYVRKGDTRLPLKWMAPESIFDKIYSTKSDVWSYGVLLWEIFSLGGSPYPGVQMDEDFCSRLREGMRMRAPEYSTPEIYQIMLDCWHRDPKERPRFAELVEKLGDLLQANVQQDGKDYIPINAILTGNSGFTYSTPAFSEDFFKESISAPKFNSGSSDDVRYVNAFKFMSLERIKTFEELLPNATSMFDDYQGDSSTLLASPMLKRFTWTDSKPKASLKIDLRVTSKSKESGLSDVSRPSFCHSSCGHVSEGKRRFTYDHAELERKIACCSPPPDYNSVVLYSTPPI
IC50 [1] [nM],IC50 (Ephrin type-B receptor 4) [nM],IC50 [2] [nM],IC50 [3] [nM],IC50 (Ephrin type-A receptor 2) [nM],SMILES
50 to 1000,< 50,50 to 1000,< 50,< 50,COc1cc2c(Nc3cc(Cl)c(Cl)cc3F)ncnc2cc1OC[C@@H]1CN2CCC[C@H]2CO1
1000 to 20000,50 to 1000,50 to 1000,50 to 1000,50 to 1000,COc1cc2c(Nc3ccc(Cl)c(Cl)c3)ncnc2cc1OC1C[C@@H]2CN(C)C[C@@H]2C1 (stereo not given in full)
50 to 1000,< 50,50 to 1000,50 to 1000,< 50,COc1cc2c(Nc3ccc(F)c(Cl)c3F)ncnc2cc1OC[C@@H]1CN2CCC[C@H]2CO1
50 to 1000,< 50,50 to 1000,< 50,< 50,COc1cc2c(Nc3ccc(Br)c(Cl)c3Cl)ncnc2cc1OC[C@@H]1CN2CCC[C@H]2CO1
50 to 1000,< 50,50 to 1000,< 50,< 50,COc1cc2c(Nc3ccc(Cl)c(Cl)c3F)ncnc2cc1OC[C@@H]1CN2CCC[C@H]2CO1
< 50,< 50,50 to 1000,< 50,< 50,COc1cc2c(Nc3ccc(Br)c(Cl)c3F)ncnc2cc1OC[C@@H]1CN2CCC[C@H]2CO1
50 to 1000,< 50,1000 to 20000,50 to 1000,50 to 1000,COc1cc2c(Nc3ccc(Cl)c(Cl)c3F)ncnc2cc1OC[C@@H]1CN2CCC[C@H]2C(=O)N1C
50 to 1000,< 50,1000 to 20000,< 50,50 to 1000,COc1cc2c(Nc3ccc(Br)c(Cl)c3F)ncnc2cc1OC[C@@H]1CN2CCC[C@H]2C(=O)N1
50 to 1000,< 50,< 50,< 50,< 50,COc1cc2c(Nc3ccc(Cl)c(Cl)c3F)ncnc2cc1OC[C@@H]1C[C@@H]2CN(C)C[C@@H]2C1 [TESEVATINIB]

SMILES,IC50 [1] [nM],IC50 (Ephrin type-B receptor 4) [nM],IC50 [2] [nM],IC50 [3] [nM],IC50 (Ephrin type-A receptor 2) [nM]
COc1cc2c(Nc3ccc(Cl)c(Cl)c3)ncnc2cc1OC[C@H]1CN2CCC[C@H]2CO1,50 to 1000,< 50,< 50,< 50,< 50

# From ChEMBL document CHEMBL3882729, “Receptor-type kinase modulators and methods of use” (2009)
